Here are results for 29 compounds from ChEMBL document CHEMBL1147504, “Synthesis of methylphenidate analogues and their binding affinities at dopamine and serotonin transport sites” (Bioorg Med Chem Lett, 2004).

The target of experiment [1] is Dopamine receptor.
Description: Potency of inhibiting 10 pM [125I]-RTI-55 binding to dopamine receptor in rat striatal membranes
A short description of experiment [2]: […]. It is filed as tissue-based, Frontal cortex.
The target in experiment [3] is T1, Sodium-dependent dopamine transporter (Rattus norvegicus, UniProt P23977).
Description: Potency of inhibiting 10 pM [125I]RTI-55 binding to dopamine transporter in rat striatal membranes
Experiment [4] addresses Sodium-dependent serotonin transporter (Rattus norvegicus, UniProt P31652). In words: Ability to displace 0.4 nM [3H]paroxetine binding to serotonin transporter in rat frontal cortex. The experiment is classed as tissue-based.
The target of experiment [5] is Dopamine receptor. In words: Potency of inhibiting [3H]WIN-35428 binding to […] in rat striatal membranes. The experiment is classed as cell membranes, Membrane.
Experiment [6] has as its target T1, Sodium-dependent dopamine transporter. In words: Inhibitory activity against dopamine transporter in rat striatal membranes. It is filed as cell membranes, Striatum, Membrane.

Chain of Sodium-dependent serotonin transporter (P31652 whole entry): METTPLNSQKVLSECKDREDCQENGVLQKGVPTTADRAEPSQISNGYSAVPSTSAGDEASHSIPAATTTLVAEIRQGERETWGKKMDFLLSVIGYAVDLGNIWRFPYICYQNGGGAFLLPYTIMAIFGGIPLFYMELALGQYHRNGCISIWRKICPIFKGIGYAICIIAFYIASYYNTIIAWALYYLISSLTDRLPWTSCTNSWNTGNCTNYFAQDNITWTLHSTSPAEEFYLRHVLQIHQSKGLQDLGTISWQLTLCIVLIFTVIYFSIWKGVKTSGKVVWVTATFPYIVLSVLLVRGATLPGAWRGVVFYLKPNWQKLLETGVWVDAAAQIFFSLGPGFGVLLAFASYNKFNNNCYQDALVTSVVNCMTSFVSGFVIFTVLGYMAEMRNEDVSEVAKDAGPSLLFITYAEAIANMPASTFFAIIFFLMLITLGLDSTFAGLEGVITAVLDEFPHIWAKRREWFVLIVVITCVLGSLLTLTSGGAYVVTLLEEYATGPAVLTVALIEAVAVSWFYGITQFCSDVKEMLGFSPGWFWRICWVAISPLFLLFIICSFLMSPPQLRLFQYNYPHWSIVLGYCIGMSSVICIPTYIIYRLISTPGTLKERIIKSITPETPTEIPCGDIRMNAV
T1 sequence (P23977 whole entry): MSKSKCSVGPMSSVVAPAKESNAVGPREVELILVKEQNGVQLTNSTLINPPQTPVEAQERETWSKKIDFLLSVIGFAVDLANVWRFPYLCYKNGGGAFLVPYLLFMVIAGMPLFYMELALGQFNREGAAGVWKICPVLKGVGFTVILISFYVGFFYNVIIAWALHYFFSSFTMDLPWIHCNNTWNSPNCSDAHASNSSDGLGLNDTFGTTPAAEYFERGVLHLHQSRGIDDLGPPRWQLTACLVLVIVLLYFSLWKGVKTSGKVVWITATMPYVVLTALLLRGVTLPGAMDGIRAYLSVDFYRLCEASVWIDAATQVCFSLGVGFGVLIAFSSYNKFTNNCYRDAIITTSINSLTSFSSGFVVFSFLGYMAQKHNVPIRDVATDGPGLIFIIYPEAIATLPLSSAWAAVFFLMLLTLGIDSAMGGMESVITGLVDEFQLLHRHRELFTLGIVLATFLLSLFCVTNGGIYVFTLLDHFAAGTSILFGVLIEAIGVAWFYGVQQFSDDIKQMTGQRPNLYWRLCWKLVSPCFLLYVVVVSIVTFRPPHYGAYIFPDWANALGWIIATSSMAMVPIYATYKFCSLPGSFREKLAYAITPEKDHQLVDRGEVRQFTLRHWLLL

Consider `COC(=O)[C@H](c1ccc2ccccc2c1)[C@H]1CCCCN1.Cl`, for which the IC50 in experiment [1] was 0.0111 µM. In addition, affinity in experiment [2] was put at a Ki of 0.0948 µM.
Consider `COC(=O)[C@H](c1ccc2cc(Br)ccc2c1)[C@@H]1CCCN1`, for which the IC50 in experiment [3] was determined as 0.446 µM. Also, in experiment [4], the affinity corresponds to a Ki of 0.0055 µM.
In the case of `COC(=O)[C@@H](c1ccc2ccccc2c1)[C@H]1CCCN1`, the inhibitory constant (Ki) in experiment [4] is 2.02 µM.
For `COC(=O)[C@H](c1ccc2cc(OC)ccc2c1)[C@@H]1CCCN1`, the Ki in experiment [4] turned out to be 0.0546 µM.
On to `COC(=O)[C@H](c1ccc2ccccc2c1)[C@@H]1CCCN1`, for which the IC50 in experiment [3] was determined as 0.465 µM. The same compound displayed a Ki in experiment [4] of 0.0025 µM.
Compound `COC(=O)[C@H](c1ccc(-c2ccccc2)cc1)[C@H]1CCCCN1.Cl` (racemic) yielded an IC50 in experiment [1] of 1.02 µM. For the same compound, in experiment [2], the Ki was above 10 µM.
In the case of `COC(=O)[C@H](c1ccccc1)[C@@H]1CCCN1` (racemic), the IC50 in experiment [3] is above 1 µM. In experiment [4], the Ki is above 10 µM.
On to `COC(=O)[C@H](c1ccc2ccccc2c1)[C@H]1CCCCN1` (racemic), for which affinity in experiment [2] was put at a Ki of 0.0716 µM.
As to `COC(=O)[C@H](c1ccc(Cl)cc1)[C@H]1CCCN1` (racemic), the IC50 in experiment [3] is 0.272 µM. In addition, the inhibition constant Ki in experiment [4] stood at 1.08 µM.
On to `COC(=O)[C@H](c1ccc(Cl)cc1)[C@@H]1CCCCN1` (racemic), for which the inhibition constant (Ki) in experiment [2] was above 10 µM.
In experiment [3], `COC(=O)[C@H](c1ccc(Br)cc1)[C@@H]1CCCN1` (racemic) gave an IC50 of 0.637 µM. This compound showed a Ki in experiment [4] above 10 µM.
On the same counts, the results for `COC(=O)[C@H](c1ccc2cc(Br)ccc2c1)[C@@H]1CCCN1` (racemic) are 0.195 µM and 0.0114 µM.
On the same counts, the results for `COC(=O)[C@H](c1ccc(C)cc1)[C@H]1CCCN1` (racemic) are 1.93 µM and above 10 µM.
As to `COC(=O)[C@H](c1ccc(Cl)cc1)[C@H]1CCCCN1.Cl` (racemic), the IC50 came out at 0.0912 µM in experiment [1] and 0.0206 µM in experiment [5]. In experiment [2], this compound gave a Ki of 2.22 µM.
With `COC(=O)[C@H](c1ccccc1)[C@H]1CCCN1` (racemic), the IC50 in experiment [3] turned out to be 3.16 µM; in experiment [6], 1.34 µM. The same compound returned a Ki in experiment [4] above 10 µM.
For `COC(=O)[C@H](c1ccccc1)[C@@H]1CCCCN1.Cl` (racemic), the IC50 in experiment [1] is above 1 µM. For the same compound, the Ki in experiment [2] is above 10 µM.
Turning to `COC(=O)[C@H](c1ccc(C)cc1)[C@@H]1CCCN1` (racemic), in experiment [3], the IC50 was above 1 µM. The compound also registered a Ki in experiment [4] above 10 µM.
As for `COC(=O)[C@H](c1ccc(C)cc1)[C@@H]1CCCCN1.Cl` (racemic), the IC50 in experiment [1] worked out at 7.43 µM. Besides, the Ki in experiment [2] is above 10 µM.
In turn, `COC(=O)[C@H](c1ccc2ccccc2c1)[C@@H]1CCCCN1.Cl` (racemic) returned an IC50 in experiment [1] of 2.08 µM. The affinity in experiment [2], expressed as Ki, was 0.105 µM.
In turn, `COC(=O)[C@H](c1ccc2cc(OC)ccc2c1)[C@@H]1CCCN1` (racemic) came in with a Ki in experiment [4] of 0.245 µM. This lies in the sub-micromolar range.
The compound `COC(=O)[C@H](c1ccc(Cl)c(Cl)c1)[C@@H]1CCCCN1.Cl` (racemic) registered an IC50 in experiment [1] of 0.0338 µM. The compound also showed a Ki in experiment [2] above 10 µM.
In the case of `COC(=O)[C@H](c1ccc(-c2ccccc2)cc1)[C@@H]1CCCCN1.Cl` (racemic), in experiment [1], the IC50 was 6.47 µM. The compound further displayed a Ki in experiment [2] above 10 µM.
Turning to `COC(=O)[C@H](c1ccc(Cl)cc1)[C@@H]1CCCN1` (racemic), the IC50 in experiment [3] is above 1 µM. The affinity in experiment [4] corresponds to a Ki of 1.9 µM.
As to `COC(=O)[C@H](c1ccc(C)cc1)[C@H]1CCCCN1.Cl` (racemic), the IC50 turned out to be 0.114 µM in experiment [1] and 0.033 µM in experiment [5]. For the same compound, in experiment [2], the Ki was above 10 µM.
In experiment [3], `COC(=O)[C@H](c1ccc2ccccc2c1)[C@@H]1CCCN1` (racemic) showed an IC50 of 0.805 µM. In experiment [4], this compound had a Ki of 0.004 µM.
As to `COC(=O)[C@H](c1ccc(Cl)c(Cl)c1)[C@H]1CCCCN1.Cl` (racemic), the results for the IC50 in experiment [1] and in experiment [5] were 0.00267 µM and 0.0053 µM, respectively. In experiment [2], this compound gave a Ki above 10 µM.
On the same counts, the results for `COC(=O)[C@H](c1ccccc1)[C@H]1CCCCN1.Cl` (racemic) [DEXMETHYLPHENIDATE HYDROCHLORIDE] are 0.164 µM, 0.083 µM and above 10 µM.
Compound `COC(=O)[C@H](c1ccc2cc(C)ccc2c1)[C@@H]1CCCN1` (stereo in doubt) showed a 50% inhibitory concentration (IC50) in experiment [3] of 0.85 µM. Also, the Ki in experiment [4] was determined as 0.0023 µM.
On the same counts, the results for `COC(=O)[C@H](c1ccc2cc(C)ccc2c1)[C@@H]1CCCN1` (stereo in doubt; 10i) are 1.41 µM and 0.0032 µM.
